The record followed here is patent US11254686B1 (Corvus Pharmaceuticals, Inc., priority 2017, dated 2022).

For orientation: IC50 means the midpoint of a concentration-inhibition curve.

For one test, the target named is adenosine A2B receptor (Homo sapiens (Human), UniProt P29275). Description: Adenosine receptor activity assay (Table 1), A2B activity. Particulars: for Ratio: A2A activity to A2B activity (A2A/A2B); for IC50: read-out: Ave A2B cAMP IC50. It is filed as biochemical.
In another test the target is adenosine A2A receptor (Homo sapiens (Human), UniProt P29274). Description: Adenosine receptor activity assay (Table 1), A2A activity. It is filed as biochemical. Particulars: read-out: Ave A2A cAMP IC50.
The next test addresses adenosine A1 receptor (Homo sapiens (Human), UniProt P30542). Description: Adenosine receptor activity assay (Table 1), A1 cAMP. It is filed as cell-based.
The next test deals with adenosine A3 receptor (Homo sapiens (Human), UniProt P0DMS8). Description: Adenosine receptor activity assay (Table 1), A3 cAMP. It counts as cell-based.
Chain of adenosine A3 receptor (P0DMS8 whole entry): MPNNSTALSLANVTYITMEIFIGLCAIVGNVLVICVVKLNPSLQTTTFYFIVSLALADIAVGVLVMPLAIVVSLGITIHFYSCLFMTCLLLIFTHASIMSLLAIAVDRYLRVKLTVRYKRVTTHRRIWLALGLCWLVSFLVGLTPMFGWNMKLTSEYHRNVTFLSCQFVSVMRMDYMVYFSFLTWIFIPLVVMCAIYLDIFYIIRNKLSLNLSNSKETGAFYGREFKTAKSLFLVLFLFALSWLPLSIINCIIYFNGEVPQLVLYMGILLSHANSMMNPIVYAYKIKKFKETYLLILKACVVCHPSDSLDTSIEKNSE

Chain of adenosine A2B receptor (P29275 whole entry): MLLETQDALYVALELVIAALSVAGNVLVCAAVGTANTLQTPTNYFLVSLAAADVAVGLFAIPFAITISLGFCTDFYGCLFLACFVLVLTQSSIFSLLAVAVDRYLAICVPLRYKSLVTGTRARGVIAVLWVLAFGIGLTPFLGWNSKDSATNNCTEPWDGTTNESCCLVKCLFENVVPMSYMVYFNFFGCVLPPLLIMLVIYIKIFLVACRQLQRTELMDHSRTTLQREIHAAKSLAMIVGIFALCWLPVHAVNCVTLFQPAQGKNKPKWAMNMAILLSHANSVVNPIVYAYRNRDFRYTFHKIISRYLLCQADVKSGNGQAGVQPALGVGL
Chain of adenosine A1 receptor (P30542 whole entry): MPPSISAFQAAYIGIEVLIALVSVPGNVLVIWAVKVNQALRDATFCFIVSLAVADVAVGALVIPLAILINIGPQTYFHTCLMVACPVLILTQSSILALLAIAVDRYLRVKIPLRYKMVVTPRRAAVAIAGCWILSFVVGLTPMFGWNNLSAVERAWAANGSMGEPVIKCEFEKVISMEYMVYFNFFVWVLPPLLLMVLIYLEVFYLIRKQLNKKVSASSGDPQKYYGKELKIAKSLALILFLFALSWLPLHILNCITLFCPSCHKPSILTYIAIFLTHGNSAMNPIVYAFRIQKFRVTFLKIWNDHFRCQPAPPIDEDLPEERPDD
Chain of adenosine A2A receptor (P29274 whole entry): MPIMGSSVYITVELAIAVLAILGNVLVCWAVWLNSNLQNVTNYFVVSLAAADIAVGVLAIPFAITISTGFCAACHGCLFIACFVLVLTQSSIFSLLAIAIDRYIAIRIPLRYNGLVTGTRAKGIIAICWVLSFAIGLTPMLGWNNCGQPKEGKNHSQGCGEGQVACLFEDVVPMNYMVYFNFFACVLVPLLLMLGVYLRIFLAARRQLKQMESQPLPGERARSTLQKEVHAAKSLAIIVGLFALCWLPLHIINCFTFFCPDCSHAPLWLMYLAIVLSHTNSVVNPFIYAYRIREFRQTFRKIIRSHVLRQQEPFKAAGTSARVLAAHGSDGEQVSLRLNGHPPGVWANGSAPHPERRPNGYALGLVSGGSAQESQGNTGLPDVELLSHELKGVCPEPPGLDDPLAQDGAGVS

Regarding `C[C@H](Nc1nc(C(=O)N2CC[C@@H](O)C2)c2sccc2n1)c1cncc(Cl)c1` [Example Z237, (2-(((S)-1-(5-Chloropyridin-3-yl)ethyl)amino)thieno[3,2-d]pyrimidin-4-yl)((R)-3-hydroxypyrrolidin-1-yl)methanone], the Ratio at adenosine A2B receptor was found to be 65.87. Also, the IC50 is 10 to 50 nM on adenosine A2B receptor, above 500 nM at adenosine A2A receptor, above 500 nM against adenosine A1 receptor and above 500 nM on adenosine A3 receptor.
`C[C@H](Nc1nc(C(=O)NCC(C)(C)O)c2sccc2n1)c1cncc(F)c1` [Example Z238, (S)-2-((1-(5-Fluoropyridin-3-yl)ethyl)amino)-N-(2-hydroxy-2-methylpropyl)thieno[3,2-d]pyrimidine-4-carboxamide]: the Ratio on adenosine A2B receptor is recorded as 22.98. For the same compound, the IC50 is below 10 nM at adenosine A2B receptor, 100 to 500 nM at adenosine A2A receptor, above 500 nM at adenosine A1 receptor and above 500 nM against adenosine A3 receptor.
`CC(C)(C)OC(=O)N[C@@H]1CCN(C(=O)c2nc(NCc3cncc(F)c3)nc3ccsc23)C1` [Example Z239, tert-Butyl (R)-(1-(2-(((5-fluoropyridin-3-yl)methyl)amino)thieno[3,2-d]pyrimidine-4-carbonyl)pyrrolidin-3-yl)carbamate]: the Ratio at adenosine A2B receptor turned out to be 14.97. Besides, the IC50 at adenosine A2B receptor is below 10 nM; on adenosine A2A receptor, 100 to 500 nM; on adenosine A1 receptor, above 500 nM; against adenosine A3 receptor it was 10 to 50 nM.
On the same counts, the results for `CNc1cc2nc(N[C@@H](C)c3cccnc3)nc(C(=O)N3CC(O)C3)c2s1` [Example Z240, (S)-(3-Hydroxyazetidin-1-yl)(6-(methylamino)-2-((1-(pyridin-3-yl)ethyl)amino)thieno[3,2-d]pyrimidin-4-yl)methanone] are 23.69, 10 to 50 nM, above 500 nM, above 500 nM and above 500 nM.
As for `C[C@H](Nc1nc(C(=O)N2CCC2)c2sc(N)cc2n1)c1cncc(F)c1` [Example Z241, (S)-(6-Amino-2-((1-(5-fluoropyridin-3-yl)ethyl)amino)thieno[3,2-d]pyrimidin-4-yl)(azetidin-1-yl)methanone], the Ratio at adenosine A2B receptor is reported as 78.77. Further, the IC50 at adenosine A2B receptor was below 10 nM; at adenosine A2A receptor, 50 to 100 nM; against adenosine A1 receptor, above 500 nM; against adenosine A3 receptor, above 500 nM.
Turning to `C[C@H](Nc1nc(C(=O)N2CC[C@@H](O)C2)c2sc(N)cc2n1)c1cncc(F)c1` [Example Z242, (6-Amino-2-(((S)-1-(5-fluoropyridin-3-yl)ethyl)amino)thieno[3,2-d]pyrimidin-4-yl)((R)-3-hydroxypyrrolidin-1-yl)methanone], the Ratio at adenosine A2B receptor is given as 45.21. Also, the IC50 at adenosine A2B receptor was below 10 nM; on adenosine A2A receptor, 100 to 500 nM; on adenosine A1 receptor, above 500 nM; at adenosine A3 receptor, above 500 nM.
With `CNc1cc2nc(N[C@@H](C)c3cncc(F)c3)nc(C(=O)N3CC(OC)C3)c2s1` [Example Z243, (S)-(2-((1-(5-Fluoropyridin-3-yl)ethyl)amino)-6-(methylamino)thieno[3,2-d]pyrimidin-4-yl)(3-methoxyazetidin-1-yl)methanone], the Ratio at adenosine A2B receptor amounted to 112.45. Moreover, the IC50 at adenosine A2B receptor was below 10 nM; on adenosine A2A receptor, 100 to 500 nM; against adenosine A1 receptor, above 500 nM; on adenosine A3 receptor it was 50 to 100 nM.
For the compound `Cc1cc2nc(N[C@@H](C)c3ccccn3)nc(C(=O)N3CCCC3)c2s1` [Example Z244, (S)-(6-Methyl-2-((1-(pyridin-2-yl)ethyl)amino)thieno[3,2-d]pyrimidin-4-yl)(pyrrolidin-1-yl)methanone], the Ratio on adenosine A2B receptor is on record as 18.24. Moreover, the IC50 at adenosine A2B receptor was below 10 nM; on adenosine A2A receptor it was 10 to 50 nM; against adenosine A1 receptor it was 50 to 100 nM; against adenosine A3 receptor, 50 to 100 nM.
Take `CO[C@@H]1CCN(C(=O)c2nc(N[C@@H](C)c3cncc(Cl)c3)nc3ccsc23)C1` [Example Z253, (2-(((S)-1-(5-Chloropyridin-3-yl)ethyl)amino)thieno[3,2-d]pyrimidin-4-yl)((R)-3-methoxypyrrolidin-1-yl)methanone]: at adenosine A2B receptor, the Ratio stood at 10.26. Further, the IC50 was 10 to 50 nM on adenosine A2B receptor, 100 to 500 nM on adenosine A2A receptor, above 500 nM against adenosine A1 receptor and above 500 nM against adenosine A3 receptor.
With `CO[C@H]1CCN(C(=O)c2nc(N[C@@H](C)c3cncc(Cl)c3)nc3ccsc23)C1` [Example Z254, (2-(((S)-1-(5-Chloropyridin-3-yl)ethyl)amino)thieno[3,2-d]pyrimidin-4-yl)((S)-3-methoxypyrrolidin-1-yl)methanone], the Ratio on adenosine A2B receptor is recorded as 9.38. For the same compound, the IC50 was 10 to 50 nM at adenosine A2B receptor, 100 to 500 nM on adenosine A2A receptor, above 500 nM against adenosine A1 receptor and above 500 nM on adenosine A3 receptor.
As to `CO[C@H]1CCN(C(=O)c2nc(N[C@@H](C)c3ccccn3)nc3ccsc23)C1` [Example Z255, ((S)-3-Methoxypyrrolidin-1-yl)(2-(((S)-1-(pyridin-2-yl)ethyl)amino)thieno[3,2-d]pyrimidin-4-yl)methanone], the Ratio at adenosine A2B receptor stood at 1.81. The IC50 at adenosine A2B receptor was 10 to 50 nM; on adenosine A2A receptor it was 10 to 50 nM; on adenosine A1 receptor, above 500 nM; against adenosine A3 receptor, above 500 nM.
As for `C[C@H](Nc1nc(C(=O)N2CC[C@H](CO)C2)c2sccc2n1)c1cccnc1` [Example Z259, ((S)-3-(Hydroxymethyl)pyrrolidin-1-yl)(2-(((S)-1-(pyridin-3-yl)ethyl)amino)thieno[3,2-d]pyrimidin-4-yl)methanone], the Ratio at adenosine A2B receptor worked out at 31.95. Further, the IC50 at adenosine A2B receptor was 10 to 50 nM; at adenosine A2A receptor, 100 to 500 nM; against adenosine A1 receptor it was above 500 nM; against adenosine A3 receptor, above 500 nM.
In the case of `C[C@H](Nc1nc(C(=O)N2CC[C@@H](CO)C2)c2sccc2n1)c1cccnc1` [Example Z260, ((R)-3-(Hydroxymethyl)pyrrolidin-1-yl)(2-(((S)-1-(pyridin-3-yl)ethyl)amino)thieno[3,2-d]pyrimidin-4-yl)methanone], on adenosine A2B receptor, the Ratio came to 16.27. For the same compound, the IC50 is 10 to 50 nM at adenosine A2B receptor, 100 to 500 nM at adenosine A2A receptor, above 500 nM against adenosine A1 receptor and above 500 nM against adenosine A3 receptor.
As for `C[C@H](Nc1nc(C(=O)NCC(F)(F)F)c2sccc2n1)c1cncc(F)c1` [Example Z263, (S)-2-((1-(5-Fluoropyridin-3-yl)ethyl)amino)-N-(2,2,2-trifluoroethyl)thieno[3,2-d]pyrimidine-4-carboxamide], the Ratio at adenosine A2B receptor stood at 9.48. Also, the IC50 is 10 to 50 nM on adenosine A2B receptor, 100 to 500 nM at adenosine A2A receptor, above 500 nM against adenosine A1 receptor and above 500 nM against adenosine A3 receptor.
For `COC1CN(C(=O)c2nc(N[C@@H](C)c3cncc(F)c3)nc3cc(C)sc23)C1` [Example Z268, (S)-(2-((1-(5-Fluoropyridin-3-yl)ethyl)amino)-6-methylthieno[3,2-d]pyrimidin-4-yl)(3-methoxyazetidin-1-yl)methanone], the Ratio at adenosine A2B receptor was determined as 57.63. The IC50 at adenosine A2B receptor is below 10 nM; on adenosine A2A receptor, 50 to 100 nM; against adenosine A1 receptor, 50 to 100 nM; against adenosine A3 receptor, 50 to 100 nM.
Take `C[C@H](Nc1nc(C(=O)N2CCC[C@@H]2C)c2sccc2n1)c1cncc(F)c1` [Example Z271, (2-(((S)-1-(5-Fluoropyridin-3-yl)ethyl)amino)thieno[3,2-d]pyrimidin-4-yl)((S)-2-methylpyrrolidin-1-yl)methanone]: the Ratio at adenosine A2B receptor amounted to 9.24. The IC50 is 10 to 50 nM at adenosine A2B receptor, 100 to 500 nM on adenosine A2A receptor, above 500 nM at adenosine A1 receptor and above 500 nM against adenosine A3 receptor.
Take `C[C@H](Nc1nc(C(=O)N2CCC[C@H]2C)c2sccc2n1)c1cncc(F)c1` [Example Z272, (2-(((S)-1-(5-Fluoropyridin-3-yl)ethyl)amino)thieno[3,2-d]pyrimidin-4-yl)((R)-2-methylpyrrolidin-1-yl)methanone]: at adenosine A2B receptor, the Ratio amounted to 9.34. Further, the IC50 was 10 to 50 nM at adenosine A2B receptor, 100 to 500 nM on adenosine A2A receptor, above 500 nM against adenosine A1 receptor and above 500 nM at adenosine A3 receptor.
Regarding `C[C@H](Nc1nc(C(=O)NCCO)c2sccc2n1)c1cncc(F)c1` [Example Z275, (S)-2-((1-(5-Fluoropyridin-3-yl)ethyl)amino)-N-(2-hydroxyethyl)thieno[3,2-d]pyrimidine-4-carboxamide], the Ratio on adenosine A2B receptor was 24.38. For the same compound, the IC50 was below 10 nM on adenosine A2B receptor, 100 to 500 nM at adenosine A2A receptor, above 500 nM on adenosine A1 receptor and above 500 nM against adenosine A3 receptor.
For the compound `Cc1cc2nc(N[C@@H](C)c3cncc(F)c3)nc(C(=O)N3CCC3)c2s1` [Example Z276, (S)-Azetidin-1-yl(2-((1-(5-fluoropyridin-3-yl)ethyl)amino)-6-methylthieno[3,2-d]pyrimidin-4-yl)methanone], on adenosine A2B receptor, the Ratio came to 92.47. Further, the IC50 was below 10 nM at adenosine A2B receptor, 50 to 100 nM on adenosine A2A receptor, 50 to 100 nM at adenosine A1 receptor and 50 to 100 nM against adenosine A3 receptor.
With `Cc1cc2nc(N[C@@H](C)c3cncc(F)c3)nc(C(=O)N3CCCC3)c2s1` [Example Z279, (S)-(2-((1-(5-Fluoropyridin-3-yl)ethyl)amino)-6-methylthieno[3,2-d]pyrimidin-4-yl)(pyrrolidin-1-yl)methanone], the Ratio at adenosine A2B receptor turned out to be 86.81. In addition, the IC50 is below 10 nM at adenosine A2B receptor, 50 to 100 nM at adenosine A2A receptor, 50 to 100 nM against adenosine A1 receptor and 50 to 100 nM at adenosine A3 receptor.
For `Cc1cc2nc(N[C@@H](C)c3cncc(F)c3)nc(C(=O)NCC(F)(F)F)c2s1` [Example Z280, (S)-2-((1-(5-Fluoropyridin-3-yl)ethyl)amino)-6-methyl-N-(2,2,2-trifluoroethyl)thieno[3,2-d]pyrimidine-4-carboxamide], the Ratio at adenosine A2B receptor was determined as 24.55. The IC50 on adenosine A2B receptor is below 10 nM; on adenosine A2A receptor it was 10 to 50 nM; at adenosine A1 receptor it was 10 to 50 nM; on adenosine A3 receptor, 50 to 100 nM.
